According to patent publication US9809623B2, “α4β7 peptide monomer and dimer antagonists” (Protagonist Therapeutics, Inc., priority 2014, dated 2017):
Numbered stars: 1 amine (or outer) side, 2 acyl side, 3 side chain; on linkers, the order of the positions; unused ones are H or OH. Bridge positions count the residues as written; N and C are the ends. Square brackets hold non-standard residues; d marks the D form. Peptide text beside a SMILES is read from it. I, II: the chains in the order shown. ξ: configuration not given here. Phe(4-COOH) = N[C@@H](Cc1ccc(C(=O)O)cc1)C(=O)O; Phe(4-tBu) = CC(C)(C)c1ccc(C[C@H](N)C(=O)O)cc1; Bip = N[C@@H](Cc1ccc(-c2ccccc2)cc1)C(=O)O; 1Nal = N[C@@H](Cc1cccc2ccccc12)C(=O)O; Diglycolyl = O=C(COCC(=O)[*:2])[*:1]; NMeR = CN[C@@H](CCCNC(=N)N)C(=O)O; β3hE = N[C@@H](CCC(=O)O)CC(=O)O; Thr(3ξ) = CC(O)[C@H](N)C(=O)O; NMeK = CN[C@@H](CCCCN)C(=O)O; Pen = CC(C)(S)[C@H](N)C(=O)O; dNMeK = CN[C@H](CCCCN)C(=O)O

These molecules were tested against α4β7 (Homo sapiens, UniProt P13612+P26010) (assay: α4β7-MAdCAM Cell Adhesion Assay (RPMI 8866 human cells)). Settings: Table 3-B, Potency (α4β7); range classes; read-out: α4β7 cell (Hu) IC50.
α4β7, sequence (P13612 34-1032): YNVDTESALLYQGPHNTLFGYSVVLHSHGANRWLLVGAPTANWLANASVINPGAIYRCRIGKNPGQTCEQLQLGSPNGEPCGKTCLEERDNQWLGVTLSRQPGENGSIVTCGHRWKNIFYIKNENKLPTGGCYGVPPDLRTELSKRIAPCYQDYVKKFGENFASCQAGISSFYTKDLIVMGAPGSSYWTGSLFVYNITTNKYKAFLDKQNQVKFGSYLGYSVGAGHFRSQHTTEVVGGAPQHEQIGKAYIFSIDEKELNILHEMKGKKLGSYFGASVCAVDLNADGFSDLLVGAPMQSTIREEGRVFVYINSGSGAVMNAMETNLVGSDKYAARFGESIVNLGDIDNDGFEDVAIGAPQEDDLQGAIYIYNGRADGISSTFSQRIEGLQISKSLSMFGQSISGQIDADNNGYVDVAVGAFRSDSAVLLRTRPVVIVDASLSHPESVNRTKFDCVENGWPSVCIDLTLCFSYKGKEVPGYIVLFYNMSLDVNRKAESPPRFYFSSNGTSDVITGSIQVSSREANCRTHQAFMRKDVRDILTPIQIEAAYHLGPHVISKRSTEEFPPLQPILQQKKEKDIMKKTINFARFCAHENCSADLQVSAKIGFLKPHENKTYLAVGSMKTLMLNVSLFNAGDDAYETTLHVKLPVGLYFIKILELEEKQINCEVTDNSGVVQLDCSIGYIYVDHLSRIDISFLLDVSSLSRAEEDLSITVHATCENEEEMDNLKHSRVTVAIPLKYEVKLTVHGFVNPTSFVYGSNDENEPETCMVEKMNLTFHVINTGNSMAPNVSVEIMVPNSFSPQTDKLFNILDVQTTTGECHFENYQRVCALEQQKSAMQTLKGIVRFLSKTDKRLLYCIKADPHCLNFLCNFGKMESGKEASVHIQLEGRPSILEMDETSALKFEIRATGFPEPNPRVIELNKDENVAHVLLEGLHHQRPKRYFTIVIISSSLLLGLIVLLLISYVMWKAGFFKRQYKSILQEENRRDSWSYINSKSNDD
α4β7, sequence (P26010 20-798): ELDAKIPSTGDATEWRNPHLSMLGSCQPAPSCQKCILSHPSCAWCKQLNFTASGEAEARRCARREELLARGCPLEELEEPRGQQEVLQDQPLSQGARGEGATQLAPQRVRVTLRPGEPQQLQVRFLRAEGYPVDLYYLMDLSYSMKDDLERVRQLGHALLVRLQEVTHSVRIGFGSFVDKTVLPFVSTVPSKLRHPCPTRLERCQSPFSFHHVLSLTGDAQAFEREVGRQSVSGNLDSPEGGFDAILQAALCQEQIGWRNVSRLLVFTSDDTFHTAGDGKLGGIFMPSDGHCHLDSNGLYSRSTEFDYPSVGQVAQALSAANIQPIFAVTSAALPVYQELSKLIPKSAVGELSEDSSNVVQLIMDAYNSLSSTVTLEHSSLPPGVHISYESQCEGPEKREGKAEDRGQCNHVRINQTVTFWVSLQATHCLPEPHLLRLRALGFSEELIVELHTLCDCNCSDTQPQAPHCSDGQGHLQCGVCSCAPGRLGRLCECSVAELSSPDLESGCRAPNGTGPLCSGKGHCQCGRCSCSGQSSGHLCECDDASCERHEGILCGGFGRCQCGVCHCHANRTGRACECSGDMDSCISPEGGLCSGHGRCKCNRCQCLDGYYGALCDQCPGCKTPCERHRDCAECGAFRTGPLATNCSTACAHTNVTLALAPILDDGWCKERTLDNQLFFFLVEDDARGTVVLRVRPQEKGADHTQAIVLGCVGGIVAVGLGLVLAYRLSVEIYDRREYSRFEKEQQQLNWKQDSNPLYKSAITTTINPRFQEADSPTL
Assay type: cell-based
Design: host or cells: RPMI 8866 human B lymphoblastoid cells
Procedure, shortened: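 Washed RPMI 8866 cells (200,000/well) in DMEM with 0.1% BSA, 10 mM HEPES pH 7, 1 mM MnCl2 adhered to rh MAdCAM-1/Fc-coated wells with serially diluted peptides, 30-45 min at 37 °C. After three washes, bound cells quantified by MTT, A570, cell-free background subtracted for dose response.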
CC(=O)N[C@@H]1C(=O)N(C)[C@@H](CCCNC(=N)N)C(=O)N[C@@H](CO)C(=O)N[C@@H](CC(=O)O)C(=O)N[C@@H]([C@@H](C)O)C(=O)N[C@@H](CC(C)C)C(=O)N[C@H](C(=O)N[C@@H](Cc2cccc3ccccc23)C(=O)N[C@@H](CCC(=O)O)C(=O)N(C)[C@H](CCCCNC(=O)COCC(=O)NCCCC[C@H](C(N)=O)N(C)C(=O)[C@H](CCC(=O)O)NC(=O)[C@H](Cc2cccc3ccccc23)NC(=O)[C@H]2NC(=O)[C@H](CC(C)C)NC(=O)[C@H]([C@@H](C)O)NC(=O)[C@H](CC(=O)O)NC(=O)[C@H](CO)NC(=O)[C@H](CCCNC(=N)N)N(C)C(=O)[C@@H](NC(C)=O)C(C)(C)SSC2(C)C)C(N)=O)C(C)(C)SSC1(C)C [compound 44] (I: Ac-[Pen][NMeR]SDTL[Pen][1Nal]E[dNMeK]-NH2 / II: Ac-[Pen][NMeR]SDTL[Pen][1Nal]E[dNMeK]-NH2; disulfide I:1-I:7, II:1-II:7; linker I:10-II:10 via Diglycolyl) was tested, and the IC50 was < 10 nM.
For CC(=O)N[C@@H]1C(=O)N(C)[C@@H](CCCNC(=N)N)C(=O)N[C@@H](CO)C(=O)N[C@@H](CC(=O)O)C(=O)N[C@@H]([C@@H](C)O)C(=O)N[C@@H](CC(C)C)C(=O)N[C@H](C(=O)N[C@@H](Cc2ccc(C(=O)O)cc2)C(=O)N[C@@H](CCC(=O)O)C(=O)N[C@H](CCCCNC(=O)COCC(=O)NCCCC[C@@H](NC(=O)[C@H](CCC(=O)O)NC(=O)[C@H](Cc2ccc(C(=O)O)cc2)NC(=O)[C@H]2NC(=O)[C@H](CC(C)C)NC(=O)[C@H]([C@@H](C)O)NC(=O)[C@H](CC(=O)O)NC(=O)[C@H](CO)NC(=O)[C@H](CCCNC(=N)N)N(C)C(=O)[C@@H](NC(C)=O)C(C)(C)SSC2(C)C)C(N)=O)C(N)=O)C(C)(C)SSC1(C)C [compound 129] (I: Ac-[Pen][NMeR]SDTL[Pen][Phe(4-COOH)]E[dK]-NH2 / II: Ac-[Pen][NMeR]SDTL[Pen][Phe(4-COOH)]E[dK]-NH2; disulfide I:1-I:7, II:1-II:7; linker I:10-II:10 via Diglycolyl), the IC50 was < 10 nM.
With CC(=O)N[C@@H]1C(=O)N(C)[C@@H](CCCNC(=N)N)C(=O)N[C@@H](CO)C(=O)N[C@@H](CC(=O)O)C(=O)N[C@@H]([C@@H](C)O)C(=O)N[C@@H](CC(C)C)C(=O)N[C@H](C(=O)N[C@@H](Cc2ccc(C(=O)O)cc2)C(=O)N[C@@H](CCC(=O)O)CC(=O)N[C@H](CCCCNC(=O)COCC(=O)NCCCC[C@@H](NC(=O)C[C@H](CCC(=O)O)NC(=O)[C@H](Cc2ccc(C(=O)O)cc2)NC(=O)[C@H]2NC(=O)[C@H](CC(C)C)NC(=O)[C@H]([C@@H](C)O)NC(=O)[C@H](CC(=O)O)NC(=O)[C@H](CO)NC(=O)[C@H](CCCNC(=N)N)N(C)C(=O)[C@@H](NC(C)=O)C(C)(C)SSC2(C)C)C(N)=O)C(N)=O)C(C)(C)SSC1(C)C [compound 130] (I: Ac-[Pen][NMeR]SDTL[Pen][Phe(4-COOH)][β3hE][dK]-NH2 / II: Ac-[Pen][NMeR]SDTL[Pen][Phe(4-COOH)][β3hE][dK]-NH2; disulfide I:1-I:7, II:1-II:7; linker I:10-II:10 via Diglycolyl) the IC50 was < 10 nM.
With CC(=O)N[C@@H]1C(=O)N(C)[C@@H](CCCNC(=N)N)C(=O)N[C@@H](CO)C(=O)N[C@@H](CC(=O)O)C(=O)N[C@@H]([C@@H](C)O)C(=O)N[C@@H](CC(C)C)C(=O)N[C@H](C(=O)N[C@@H](Cc2cccc3ccccc23)C(=O)N[C@@H](CCC(=O)O)CC(=O)N(C)[C@@H](CCCCNC(=O)COCC(=O)NCCCC[C@@H](C(N)=O)N(C)C(=O)C[C@H](CCC(=O)O)NC(=O)[C@H](Cc2cccc3ccccc23)NC(=O)[C@H]2NC(=O)[C@H](CC(C)C)NC(=O)[C@H]([C@@H](C)O)NC(=O)[C@H](CC(=O)O)NC(=O)[C@H](CO)NC(=O)[C@H](CCCNC(=N)N)N(C)C(=O)[C@@H](NC(C)=O)C(C)(C)SSC2(C)C)C(N)=O)C(C)(C)SSC1(C)C [compound 142] (I: Ac-[Pen][NMeR]SDTL[Pen][1Nal][β3hE][NMeK]-NH2 / II: Ac-[Pen][NMeR]SDTL[Pen][1Nal][β3hE][NMeK]-NH2; disulfide I:1-I:7, II:1-II:7; linker I:10-II:10 via Diglycolyl) the IC50 was < 10 nM.
CC(=O)N[C@@H]1C(=O)N(C)[C@@H](CCCNC(=N)N)C(=O)N[C@@H](CO)C(=O)N[C@@H](CC(=O)O)C(=O)N[C@@H]([C@@H](C)O)C(=O)N[C@@H](CC(C)C)C(=O)N[C@H](C(=O)N[C@@H](Cc2ccc(C(=O)O)cc2)C(=O)N[C@@H](CCC(=O)O)C(=O)N(C)[C@@H](CCCCNC(=O)COCC(=O)NCCCC[C@@H](C(N)=O)N(C)C(=O)[C@H](CCC(=O)O)NC(=O)[C@H](Cc2ccc(C(=O)O)cc2)NC(=O)[C@H]2NC(=O)[C@H](CC(C)C)NC(=O)[C@H]([C@@H](C)O)NC(=O)[C@H](CC(=O)O)NC(=O)[C@H](CO)NC(=O)[C@H](CCCNC(=N)N)N(C)C(=O)[C@@H](NC(C)=O)C(C)(C)SSC2(C)C)C(N)=O)C(C)(C)SSC1(C)C [compound 147] (I: Ac-[Pen][NMeR]SDTL[Pen][Phe(4-COOH)]E[NMeK]-NH2 / II: Ac-[Pen][NMeR]SDTL[Pen][Phe(4-COOH)]E[NMeK]-NH2; disulfide I:1-I:7, II:1-II:7; linker I:10-II:10 via Diglycolyl) was tested, and the IC50 was < 10 nM.
In the case of CC(=O)N[C@@H]1C(=O)N(C)[C@@H](CCCNC(=N)N)C(=O)N[C@@H](CO)C(=O)N[C@@H](CC(=O)O)C(=O)N[C@@H]([C@@H](C)O)C(=O)N[C@@H](CC(C)C)C(=O)N[C@H](C(=O)N[C@@H](Cc2ccc(C(=O)O)cc2)C(=O)N[C@@H](CCC(=O)O)CC(=O)N(C)[C@@H](CCCCNC(=O)COCC(=O)NCCCC[C@@H](C(N)=O)N(C)C(=O)C[C@H](CCC(=O)O)NC(=O)[C@H](Cc2ccc(C(=O)O)cc2)NC(=O)[C@H]2NC(=O)[C@H](CC(C)C)NC(=O)[C@H]([C@@H](C)O)NC(=O)[C@H](CC(=O)O)NC(=O)[C@H](CO)NC(=O)[C@H](CCCNC(=N)N)N(C)C(=O)[C@@H](NC(C)=O)C(C)(C)SSC2(C)C)C(N)=O)C(C)(C)SSC1(C)C [compound 148] (I: Ac-[Pen][NMeR]SDTL[Pen][Phe(4-COOH)][β3hE][NMeK]-NH2 / II: Ac-[Pen][NMeR]SDTL[Pen][Phe(4-COOH)][β3hE][NMeK]-NH2; disulfide I:1-I:7, II:1-II:7; linker I:10-II:10 via Diglycolyl), the IC50 is reported as < 10 nM.
With CC(=O)N[C@@H]1C(=O)N(C)[C@@H](CCCNC(=N)N)C(=O)N[C@@H](CO)C(=O)N[C@@H](CC(=O)O)C(=O)N[C@@H]([C@@H](C)O)C(=O)N[C@@H](CC(C)C)C(=O)N[C@H](C(=O)N[C@@H](Cc2ccc(C(C)(C)C)cc2)C(=O)N[C@@H](CCC(=O)O)CC(=O)N(C)[C@@H](CCCCNC(=O)COCC(=O)NCCCC[C@@H](C(N)=O)N(C)C(=O)C[C@H](CCC(=O)O)NC(=O)[C@H](Cc2ccc(C(C)(C)C)cc2)NC(=O)[C@H]2NC(=O)[C@H](CC(C)C)NC(=O)[C@H]([C@@H](C)O)NC(=O)[C@H](CC(=O)O)NC(=O)[C@H](CO)NC(=O)[C@H](CCCNC(=N)N)N(C)C(=O)[C@@H](NC(C)=O)C(C)(C)SSC2(C)C)C(N)=O)C(C)(C)SSC1(C)C [compound 149] (I: Ac-[Pen][NMeR]SDTL[Pen][Phe(4-tBu)][β3hE][NMeK]-NH2 / II: Ac-[Pen][NMeR]SDTL[Pen][Phe(4-tBu)][β3hE][NMeK]-NH2; disulfide I:1-I:7, II:1-II:7; linker I:10-II:10 via Diglycolyl) the IC50 was < 10 nM.
In the case of CC(=O)N[C@@H]1C(=O)N(C)[C@@H](CCCNC(=N)N)C(=O)N[C@@H](CO)C(=O)N[C@@H](CC(=O)O)C(=O)N[C@@H]([C@@H](C)O)C(=O)N[C@@H](CC(C)C)C(=O)N[C@H](C(=O)N[C@@H](Cc2ccc(-c3ccccc3)cc2)C(=O)N[C@@H](CCC(=O)O)CC(=O)N(C)[C@@H](CCCCNC(=O)COCC(=O)NCCCC[C@@H](C(N)=O)N(C)C(=O)C[C@H](CCC(=O)O)NC(=O)[C@H](Cc2ccc(-c3ccccc3)cc2)NC(=O)[C@H]2NC(=O)[C@H](CC(C)C)NC(=O)[C@H]([C@@H](C)O)NC(=O)[C@H](CC(=O)O)NC(=O)[C@H](CO)NC(=O)[C@H](CCCNC(=N)N)N(C)C(=O)[C@@H](NC(C)=O)C(C)(C)SSC2(C)C)C(N)=O)C(C)(C)SSC1(C)C [compound 150] (I: Ac-[Pen][NMeR]SDTL[Pen][Bip][β3hE][NMeK]-NH2 / II: Ac-[Pen][NMeR]SDTL[Pen][Bip][β3hE][NMeK]-NH2; disulfide I:1-I:7, II:1-II:7; linker I:10-II:10 via Diglycolyl), the IC50 is reported as < 10 nM.
In the case of CC(=O)N[C@@H]1C(=O)N(C)[C@@H](CCCNC(=N)N)C(=O)N[C@@H](CO)C(=O)N[C@@H](CC(=O)O)C(=O)N[C@@H]([C@@H](C)O)C(=O)N[C@@H](CC(C)C)C(=O)N[C@H](C(=O)N[C@@H](Cc2ccc(C(C)(C)C)cc2)C(=O)N[C@@H](CCC(=O)O)CC(=O)O)C(C)(C)SSC1(C)C [compound 152] (Ac-[Pen][NMeR]SDTL[Pen][Phe(4-tBu)][β3hE]-OH; disulfide 1-7), the IC50 is reported as < 10 nM.

Same assay, conditions: human B cell lymphoblastoid RPMI8866; read-out: IC50 for blocking adhesion of RPMI8866 cell line to MAdCAM-1
CC(=O)N[C@@H]1C(=O)N(C)[C@@H](CCCNC(=N)N)C(=O)N[C@@H](CO)C(=O)N[C@@H](CC(=O)O)C(=O)N[C@@H](C(C)O)C(=O)N[C@@H](CC(C)C)C(=O)N[C@H](C(=O)N[C@@H](Cc2ccc(C(C)(C)C)cc2)C(=O)N[C@@H](CCC(=O)O)CC(=O)N[C@H](CCCCNC(=O)COCC(=O)NCCCC[C@@H](NC(=O)C[C@H](CCC(=O)O)NC(=O)[C@H](Cc2ccc(C(C)(C)C)cc2)NC(=O)[C@H]2NC(=O)[C@H](CC(C)C)NC(=O)[C@H](C(C)O)NC(=O)[C@H](CC(=O)O)NC(=O)[C@H](CO)NC(=O)[C@H](CCCNC(=N)N)N(C)C(=O)[C@@H](NC(C)=O)C(C)(C)SSC2(C)C)C(N)=O)C(N)=O)C(C)(C)SSC1(C)C (stereo partly drawn) [Peptide X, [Ac-Pen-(N-Me-Arg)-Ser-Asp-Thr-Leu-Pen-(Phe(4-tBu))-(β-homoGlu)-(D-Lys)]2-DIG] (I: Ac-[Pen][NMeR]SD[Thr(3ξ)]L[Pen][Phe(4-tBu)][β3hE][dK]-NH2 / II: Ac-[Pen][NMeR]SD[Thr(3ξ)]L[Pen][Phe(4-tBu)][β3hE][dK]-NH2; disulfide I:1-I:7, II:1-II:7; linker I:10-II:10 via Diglycolyl) was tested, and the IC50 was 0.72 nM.
